Source: the supplement of paper PMC10307832

Tests used:
Assay in all cases: relative viability (nuclei count vs DMSO), 5 days (fraction); higher = more cells survive
[1] = compound: C[As](C)SC[C@H](NC(=O)CC[C@H](N)C(=O)O)C(=O)NCC(=O)O [Darinaparsin] + CCNC(=O)c1noc(-c2cc(C(C)C)c(O)cc2O)c1-c1ccc(CN2CCOCC2)cc1 [Luminespib] (partner 0.01 µM)
How it was run: (§1)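 Each reported value is a median over duplicate plates. It expresses relative viability: treated-well nuclei count divided by vehicle-well nuclei count. Lung cancer cell lines in 1536-well plates were dosed by pin tool a day after seeding, alone with one drug or with a fixed anchor-drug dose plus five library-drug doses (not always all listed) in √10 steps, and nuclei were counted after 5 days.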

QS11 + Foretinib = compound: C1CC2=C(C1)C=C(C=C2)OC3=NC(=C4C(=N3)N(C=N4)CC5=CC=C(C=C5)C6=CC=CC=C6)N[C@@H](CC7=CC=CC=C7)CO [QS11] + COc1cc2c(Oc3ccc(NC(=O)C4(C(=O)Nc5ccc(F)cc5)CC4)cc3F)ccnc2cc1OCCCN1CCOCC1 [Foretinib] (partner 0.25 µM)
How it was run: as §1

AZ628 + Foretinib = compound: CC1=C(C=C(C=C1)NC(=O)C2=CC(=CC=C2)C(C)(C)C#N)NC3=CC4=C(C=C3)N=CN(C4=O)C [AZ628] + COc1cc2c(Oc3ccc(NC(=O)C4(C(=O)Nc5ccc(F)cc5)CC4)cc3F)ccnc2cc1OCCCN1CCOCC1 [Foretinib] (partner 0.25 µM)
How it was run: as §1

[2] = compound: C[As](C)SC[C@H](NC(=O)CC[C@H](N)C(=O)O)C(=O)NCC(=O)O [Darinaparsin] + CC(C)C[C@H](NC(=O)[C@H](Cc1ccccc1)NC(=O)c1cnccn1)B(O)O [Bortezomib] (partner 0.002 µM)
How it was run: as §1

Row | Cell Line | relative viability ([1]; first compound 0.08 µM) | relative viability ([1]; first compound 0.8 µM) | relative viability ([1]; first compound 2.53 µM) | relative viability ([1]; first compound 8 µM) | relative viability (QS11 + Foretinib; first compound 0.08 µM) | relative viability (QS11 + Foretinib; first compound 0.253 µM) | relative viability (QS11 + Foretinib; first compound 0.8 µM) | relative viability (QS11 + Foretinib; first compound 2.53 µM) | relative viability (QS11 + Foretinib; first compound 8 µM) | relative viability (AZ628 + Foretinib; first compound 0.08 µM) | relative viability (AZ628 + Foretinib; first compound 0.253 µM) | relative viability (AZ628 + Foretinib; first compound 0.8 µM) | relative viability (AZ628 + Foretinib; first compound 2.53 µM) | relative viability (AZ628 + Foretinib; first compound 8 µM) | relative viability ([2]; first compound 0.08 µM) | relative viability ([2]; first compound 0.8 µM) | relative viability ([2]; first compound 2.53 µM) | relative viability ([2]; first compound 8 µM)
1 | NCI-H1975 | 0.233 | 0.221 | 0.23 | 0.187 | 1.02 | 1.02 | 1.04 | 1.32 | 1.35 | 0.905 | 0.922 | 0.872 | 0.918 | 0.582 | 0.444 | 0.4 | 0.291 | 0.306
2 | NCI-H1993 | 0.957 | 0.698 | 0.724 | 0.723 | 0.737 | 0.636 | 0.696 | 0.787 | 0.628 | 1.05 | 0.68 | 0.714 | 0.715 | 0.667 | 1.24 | 0.875 | 1.31 | 1.04
3 | NCI-H2009 | 1.18 | 1.01 | 1.01 | 1.07 | 1.24 | 1.24 | 1.09 | 0.98 | 1.11 | 1.02 | 0.861 | 0.704 | 0.573 | 0.355 | 1.1 | 1.06 | 0.963 | 0.845
4 | NCI-H2023 | 0.927 | 0.714 | 0.827 | 0.882 | 0.721 | 0.883 | 0.686 | 0.999 | 0.852 | 0.886 | 0.824 | 0.826 | 0.724 | 0.607 | 1.36 | 0.956 | 0.892 | 1.06
5 | NCI-H2085 | 0.45 | 0.383 | 0.545 | 0.398 | 1.01 | 0.886 | 0.911 | 1.02 | 1 | 0.994 | 1.17 | 1.07 | 1.09 | 0.676 | 0.987 | 0.996 | 1.07 | 1.16
6 | NCI-H2087 | 0.159 | 0.162 | 0.204 | 0.184 | 1.07 | 1.15 | – | 1.15 | 1.06 | 0.839 | 0.821 | 0.727 | 0.78 | 0.256 | 1.02 | 0.944 | 0.948 | 1.13
7 | NCI-H2126 | 0.984 | 1.02 | 0.722 | 0.931 | 1.18 | 1.22 | 1.07 | 1.1 | 1.04 | 1.27 | 1.18 | 1.22 | 0.922 | 0.94 | 1.16 | 1.2 | 0.892 | 1.19
8 | NCI-H2228 | 0.162 | 0.206 | 0.135 | 0.102 | 0.835 | 0.827 | 0.755 | 1 | 1.03 | 0.72 | 0.806 | 0.811 | 0.722 | 0.532 | 1.63 | 1.12 | 0.975 | 1.13
9 | NCI-H2347 | 1.01 | – | 0.414 | 0.388 | 0.825 | 1.18 | 1.01 | 0.942 | 0.994 | 0.697 | 0.81 | 0.704 | 0.976 | 0.407 | 1.18 | 0.742 | 0.831 | 1.16
